Our source for the IC50 values is patent US6723753B2, “Substituted n-benzyl-n-phenyl aminoalcohol compounds useful for inhibiting cholesteryl ester transfer protein activity” (Pharmacia Corporation, priority 2002, dated 2004).

pIC50: −log10 of the molar value.

For orientation: pIC50 means the IC50 on a negative log10 scale, so that one unit is a factor of ten.

One assay addresses T1, CETP (Homo sapiens, UniProt P11597).
T1 sequence (P11597 18-493): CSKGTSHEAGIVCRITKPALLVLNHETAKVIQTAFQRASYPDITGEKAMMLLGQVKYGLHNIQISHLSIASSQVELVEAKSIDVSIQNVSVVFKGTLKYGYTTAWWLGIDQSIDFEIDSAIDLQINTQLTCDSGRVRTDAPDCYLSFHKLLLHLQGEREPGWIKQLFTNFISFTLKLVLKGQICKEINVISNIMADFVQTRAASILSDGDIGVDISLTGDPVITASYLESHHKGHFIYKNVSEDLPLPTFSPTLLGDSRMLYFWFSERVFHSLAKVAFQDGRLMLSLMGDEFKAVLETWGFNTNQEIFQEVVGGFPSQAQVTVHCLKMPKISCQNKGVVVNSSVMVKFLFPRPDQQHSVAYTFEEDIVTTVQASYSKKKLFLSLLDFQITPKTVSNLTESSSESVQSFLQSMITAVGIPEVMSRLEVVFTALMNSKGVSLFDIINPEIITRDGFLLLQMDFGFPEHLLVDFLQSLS
Description: Assay of CETP Inhibition using Purified Components (Reconstituted Buffer Assay). Also noted: made in house; host or cells: CHO cells (serum-free conditioned medium). The conditions noted are these: IC50, Inhibition of CETP activity in reconstituted buffer assay; transfer of [3H]CE from HDL to LDL. It is filed as biochemical. The protocol: Assay of CETP Inhibition using Purified Components (Reconstituted Buffer Assay)
The ability of compounds to inhibit CETP activity was assessed using an in vitro assay that measured the rate of transfer of radiolabeled cholesteryl ester ([^3H]CE) from HDL donor particles to LDL acceptor particles. Details of the assay are provided by Glenn, K. C. et al. (Glenn and Melton, “Quantification of Cholesteryl Ester Transfer Protein (CETP): A) CETP Activity and B) Immunochemical Assay of CETP Protein,” Meth. Enzymol., 263, 339-351 (1996)). Human recombinant CETP can be obtained from the serum-free conditioned medium of CHO cells transfected with a cDNA for CETP and purified as described by Wang, S. et al. (J. Biol. Chem. 267, 17487-17490 (1992)). To measure CETP activity, [^3H]CE-labeled-HDL, LDL, CETP and assay buffer (50 mM tris(hydroxymethyl)aminomethane, pH 7.4; 150 mM sodium chloride; 2 mM ethylenediamine-tetraacetic acid (EDTA); 1% bovine serum albumin) were incubated in a final volume of 200 μL, for 2 hours at 37° C. in 96 well plates. […] The inhibitors were then diluted 1:1 with CETP in assay buffer, and then 25 μL of that solution was mixed with 175 μL of lipoprotein pool for assay. Following incubation, LDL was differentially precipitated by the addition of 50 μL of 1% (w/v) dextran sulfate/0.5 M magnesium chloride, mixed by vortex, and incubated at room temperature for 10 minutes. A potion of the solution (200 μL) was transferred to a filter plate (Millipore). After filtration, the radioactivity present in the precipitated LDL was measured by liquid scintillation counting.
This value was defined as the IC50.
Examples of IC50 values determined by these methods are specified in Table 9.
`OC(CN(Cc1cccc(OC(F)(F)F)c1)c1ccc(Oc2ccccc2)cc1)C(F)(F)F` (stereo not drawn) [Example 133] had a pIC50 of 4.60.

Staying with this assay, now noted: Inhibition of CETP activity in reconstituted buffer assay; transfer of [3H]CE from HDL to LDL; read-out: IC50.
As for `OC(CN(Cc1ccc(OC(F)(F)F)cc1)c1cccc(F)c1F)C(F)(F)F` (stereo not drawn) [Example 80], the pIC50 was 4.70.
Still for that read-out and setting: then `Cc1cccc(CN(CC(O)C(F)(F)F)c2cc(F)cc(F)c2)c1` (stereo not drawn) [Example 81], with less than 4.00; and `OC(CN(Cc1cccc(Oc2ccccc2)c1)c1cccc(OC(F)(F)F)c1)C(F)(F)F` (stereo not drawn) [Example 82], with 5.10; and `OC(CN(Cc1cccc(OCc2ccccc2)c1)c1cccc(OC(F)(F)F)c1)C(F)(F)F` (stereo not drawn) [Example 83], with 4.70.
The same measure, in the same setting: under `OC(CN(Cc1cccc(Oc2ccccc2)c1)c1ccccc1-c1ccccc1)C(F)(F)F` (stereo not drawn) [Example 85] stands 4.10; under `OC(CN(Cc1cccc(Oc2ccccc2)c1)c1ccc(-c2ccccc2)cc1)C(F)(F)F` (stereo not drawn) [Example 86], 4.70; under `CCCCCCCCc1ccc(N(Cc2cccc(OC(F)(F)F)c2)CC(O)C(F)(F)F)cc1` (stereo not drawn) [Example 88], 4.12.
Consider `OC(CN(Cc1cccc(Oc2ccc(Cl)cc2)c1)c1cccc(Oc2ccccc2)c1)C(F)(F)F` (stereo not drawn) [Example 92], for which the pIC50 is 4.92.
Still for that read-out and setting: then `OC(CN(Cc1cccc(Oc2ccc(Cl)c(Cl)c2)c1)c1cccc(Oc2ccccc2)c1)C(F)(F)F` (stereo not drawn) [Example 94], with 4.40; and `OC(CN(Cc1cccc(Oc2ccc(Cl)c(Cl)c2)c1)c1cccc(OC(F)(F)F)c1)C(F)(F)F` (stereo not drawn) [Example 95], with 4.22.
Still for that read-out and setting: then `COc1ccc(CN(CC(O)C(F)(F)F)c2cccc(OC(F)(F)F)c2)cc1OCc1ccccc1` (stereo not drawn) [Example 99], with less than 4.00; and `OC(CN(Cc1ccc(OCc2ccccc2)c(OCc2ccccc2)c1)c1cccc(OC(F)(F)F)c1)C(F)(F)F` (stereo not drawn) [Example 100], with 4.05.
As to `CCOc1cccc(CN(CC(O)C(F)(F)F)c2cccc(OC(F)(F)F)c2)c1` (stereo not drawn) [Example 101], the negative logarithm of the IC50 (pIC50) is 5.22.
For `CC(=O)Oc1cccc(CN(CC(O)C(F)(F)F)c2cccc(OC(F)(F)F)c2)c1` (stereo not drawn) [Example 102], the pIC50 is 4.22.
Same read-out and setting: under `OCCOc1cccc(CN(CC(O)C(F)(F)F)c2cccc(OC(F)(F)F)c2)c1` (stereo not drawn) [Example 103] stands 4.46.
Still for that read-out and setting: then `OC(CN(Cc1ccc2c(c1)OCCO2)c1cccc(OC(F)(F)F)c1)C(F)(F)F` (stereo not drawn) [Example 105], with 4.46; and `COc1cc(CN(CC(O)C(F)(F)F)c2cccc(OC(F)(F)F)c2)ccc1OCc1ccccc1` (stereo not drawn) [Example 106], with 4.52; and `OC(CN(Cc1cc(OCc2ccccc2)cc(OCc2ccccc2)c1)c1cccc(OC(F)(F)F)c1)C(F)(F)F` (stereo not drawn) [Example 107], with 4.12.
Same read-out and setting: then `OC(CN(Cc1cccc(Oc2cccc(C(F)(F)F)c2)c1)c1cccc(C(F)(F)F)c1)C(F)(F)F` (stereo not drawn) [Example 108], with 4.22; and `OC(CN(Cc1cccc(Oc2ccccc2)c1)c1cccc(C(F)(F)F)c1)C(F)(F)F` (stereo not drawn) [Example 109], with 4.60; and `OC(CN(Cc1cccc(Oc2cccc(C(F)(F)F)c2)c1)c1ccc(C(F)(F)F)cc1)C(F)(F)F` (stereo not drawn) [Example 110], with 4.22.
For `OC(CN(Cc1cccc(Oc2ccccc2)c1)c1ccc(C(F)(F)F)cc1)C(F)(F)F` (stereo not drawn) [Example 111], the pIC50 is 4.19.
Same read-out and setting: then `O=[N+]([O-])c1cccc(CN(CC(O)C(F)(F)F)c2cccc(Oc3ccccc3)c2)c1` (stereo not drawn) [Example 113], with 4.70.
Take `OC(CN(Cc1cccc(Oc2cc(Cl)cc(Cl)c2)c1)c1cccc(Oc2ccccc2)c1)C(F)(F)F` (stereo not drawn) [Example 114]: the pIC50 is 4.40.
Still for that read-out and setting: then `COc1ccc(CN(CC(O)C(F)(F)F)c2cccc(OC(F)(F)F)c2)cc1OC` (stereo not drawn) [Example 116], with 4.40.
`CCOc1cc(CN(CC(O)C(F)(F)F)c2cccc(OC(F)(F)F)c2)ccc1OC` (stereo not drawn) [Example 117]: the pIC50 is 4.60.
As for `CC(=O)Oc1ccc(CN(CC(O)C(F)(F)F)c2cccc(OC(F)(F)F)c2)cc1OC(C)=O` (stereo not drawn) [Example 118], the pIC50 is 4.35.
`COc1cc(CN(CC(O)C(F)(F)F)c2cccc(OC(F)(F)F)c2)ccc1OC(C)=O` (stereo not drawn) [Example 119]: the pIC50 was 4.15.
Still for that read-out and setting: then `COc1cccc(CN(CC(O)C(F)(F)F)c2cccc(OC(F)(F)F)c2)c1` (stereo not drawn) [Example 121], with less than 4.00.
Still for that read-out and setting: then `COc1ccc(CN(CC(O)C(F)(F)F)c2cccc(OC(F)(F)F)c2)cc1` (stereo not drawn) [Example 122], with 5.10; and `COc1cccc(CN(CC(O)C(F)(F)F)c2cccc(OC)c2)c1` (stereo not drawn) [Example 123], with 4.05; and `COc1cccc(N(Cc2cccc(OC(F)(F)F)c2)CC(O)C(F)(F)F)c1` (stereo not drawn) [Example 124], with 5.10.
Consider `CCCOc1ccc(CN(CC(O)C(F)(F)F)c2cccc(OC(F)(F)F)c2)cc1` (stereo not drawn) [Example 125], for which the pIC50 is 4.60.
The same measure, in the same setting: then `OC(CN(Cc1cccc(OC(F)(F)F)c1)c1ccc2c(c1)OCO2)C(F)(F)F` (stereo not drawn) [Example 129], with 5.05; and `OC(CN(Cc1cccc(Oc2ccccc2)c1)c1ccc2c(c1)OCO2)C(F)(F)F` (stereo not drawn) [Example 130], with 4.10.
On to `COc1ccc(N(Cc2cccc(OC(F)(F)F)c2)CC(O)C(F)(F)F)cc1OC` (stereo not drawn) [Example 132], for which the negative logarithm of the IC50 (pIC50) was 4.60.
Still for that read-out and setting: then `OC(CN(Cc1cccc(OC(F)(F)F)c1)c1ccc(OC(F)(F)F)cc1)C(F)(F)F` (stereo not drawn) [Example 134], with 5.22.
Same read-out and setting: under `CCCCOc1ccc(N(Cc2cccc(OC(F)(F)F)c2)CC(O)C(F)(F)F)cc1` (stereo not drawn) [Example 135] stands 4.70; under `OC(CN(Cc1cccc(OC(F)(F)F)c1)c1ccc(Cc2ccccc2)cc1)C(F)(F)F` (stereo not drawn) [Example 136], 4.92.
Still for that read-out and setting: under `OC(CN(Cc1ccc2c(c1)OCCO2)c1cccc(Oc2ccccc2)c1)C(F)(F)F` (stereo not drawn) [Example 137] stands 4.70; under `CCOc1ccc(CN(CC(O)C(F)(F)F)c2cccc(OC(F)(F)F)c2)cc1OCC` (stereo not drawn) [Example 138], 4.52.
As for `OC(CN(Cc1cccc(OC(F)(F)F)c1)c1ccc2c(c1)OCCCO2)C(F)(F)F` (stereo not drawn) [Example 139], the pIC50 is 5.10.
Same read-out and setting: under `N#Cc1cccc(N(Cc2ccc(C(F)(F)F)cc2)CC(O)C(F)(F)F)c1` (stereo not drawn) [Example 142] stands 4.40; under `OC(CN(Cc1ccc(-c2ccccc2)cc1)c1cccc(C(F)(F)F)c1)C(F)(F)F` (stereo not drawn) [Example 143], 4.10.
Same read-out and setting: under `OC(CN(Cc1cc(C(F)(F)F)cc(C(F)(F)F)c1)c1cccc(Oc2ccccc2)c1)C(F)(F)F` (stereo not drawn) [Example 145] stands 4.82.
Still for that read-out and setting: then `N#Cc1ccc(CN(CC(O)C(F)(F)F)c2cccc(Oc3ccccc3)c2)cc1` (stereo not drawn) [Example 146], with 5.00; and `N#Cc1cccc(CN(CC(O)C(F)(F)F)c2cccc(Oc3ccccc3)c2)c1` (stereo not drawn) [Example 147], with 5.10.
For the molecule `O=[N+]([O-])c1ccc(CN(CC(O)C(F)(F)F)c2cccc(Oc3ccccc3)c2)cc1` (stereo not drawn) [Example 148], the pIC50 is 4.82.
Same read-out and setting: under `OC(CN(Cc1cccc(Oc2ccccc2)c1)c1ccc(Oc2ccccc2)cc1)C(F)(F)F` (stereo not drawn) [Example 151] stands less than 4.00.
For `OC(CN(Cc1ccc(Oc2ccccc2)cc1)c1cccc(OC(F)(F)F)c1)C(F)(F)F` (stereo not drawn) [Example 152], the pIC50 is 5.10.
The same measure, in the same setting: then `OC(CN(Cc1ccc(Oc2ccccc2)cc1)c1cccc(Oc2ccccc2)c1)C(F)(F)F` (stereo not drawn) [Example 153], with 5.40; and `OC(CN(Cc1ccc(Oc2ccccc2)cc1)c1ccc(Oc2ccccc2)cc1)C(F)(F)F` (stereo not drawn) [Example 154], with less than 4.00.
Same read-out and setting: then `OC(CN(Cc1ccc(OC(F)(F)F)cc1)c1ccc(Oc2ccccc2)cc1)C(F)(F)F` (stereo not drawn) [Example 155], with less than 4.00.
`CS(=O)(=O)c1ccc(CN(CC(O)C(F)(F)F)c2cccc(Oc3ccccc3)c2)cc1` (stereo not drawn) [Example 156]: the pIC50 is 4.40.
Still for that read-out and setting: then `COC(=O)c1ccc(CN(CC(O)C(F)(F)F)c2cccc(Oc3ccccc3)c2)cc1` (stereo not drawn) [Example 157], with less than 4.00; and `CCOc1ccc(CN(CC(O)C(F)(F)F)c2cccc(OC(F)(F)F)c2)cc1` (stereo not drawn) [Example 158], with 4.92.
